Like-named read-outs stand apart in the source and are kept apart here. *1 amine or outer side, *2 acyl side, *3 side chain or, on linkers, in order; H or OH if unused. Where a SMILES comes first, the peptide text is derived from it. Bridges are numbered along the chain shown (N, C = ends). [ ]: non-standard residue; d: D form. The star is where a group is joined. hTyr(3S-OH,4S-OH,3'-OSO3H) = N[C@H](C(=O)O)[C@H](O)[C@@H](O)c1ccc(O)c(OS(=O)(=O)O)c1; Orn(4R-OH,5R-OH) = O=C([C@H](C[C@@H](O)[C@@H](O)N[*:3])N[*:1])[*:2]; Pro(3S-OH,4S-Me) = C[C@H]1CN[C@H](C(=O)O)[C@H]1O; X1 = CCCCCOc1ccc(-c2cc(-c3ccc(C(=O)*)cc3)no2)cc1; Gln(3R-OH) = NC(=O)C[C@@H](O)[C@H](N)C(=O)O; Hyp = O=C(O)[C@@H]1C[C@@H](O)CN1
Experiments:
P. aeruginosa [1] = format: cell-based, Pseudomonas aeruginosa
Protocol: Growth and high-throughput LacZ assays were optimized in a 384-well plate format using three reporter strains In order to identify down-regulators of virulence, rather than growth-inhibitors of P. aeruginosa, special care was taken to eliminate compounds that (i) interfered with the LacZ assay and (ii) affected P. aeruginosa growth. […] Growth-inhibition assays using the small molecule library were performed by monitoring optical density at 600 nm (OD600 nm).
(§6) In various examples, bacterial growth was carried out in LB supplemented with 50 mM Mops, pH 7.0 (hereafter, LB-Mops). To commence a screen, a P. aeruginosa reporter strain from an LB agar plate was used to inoculate 5 mL of LB-Mops medium in a sterile 14-mL bacterial culture tube. The culture was grown for 4 h at 30° C./250 rpm. After 4 h, its optical density (OD600 nm) was determined on a Cary 60 UV-visible spectrophotometer (Agilent). The culture was diluted into 100 mL of LB-Mops to give a final OD600 nm of 0.05. Subsequently a volume of 50 μL was dispensed into each of six sterile, 384 well plates (Corning) using a Multiflo Microplate Dispenser (Biotek). Candidate elicitors were added to the plates using a CyBi-Well automated liquid transfer robot (CyBio). Each well was supplemented with 0.2 μL of a compound from the Enzo Scientific FDA approved drug library, which comprises 770 molecules. The compounds were dispensed into columns 3 through 22 on each plate. Columns 2 and 23 contained the negative control (the reporter strain being tested in the absence of any compounds), and columns 1 and 24 contained the positive control (e.g., strain phzB2-lacZ). Each compound was tested in duplicate, using three 384-well plates per set. Each plate was covered with a Breathe-Easy sealing membrane (Sigma) and cultured at 30° C./250 rpm in a Multitron Shaker (ATR) equipped with green sealing tray. To maintain constant humidity, several 1-L Erlenmeyer flasks containing 200 mL of sterile water were also placed inside the shaker. After 12 h, the plates were removed from the shaker. The β-Glo reagent (Promega) was used to monitor LacZ activity. The reagent was diluted 3:1 with water. Then each well was supplemented with 15 μL of the diluted β-Glo reagent using the Multiflo automated dispenser, manually shaken to mix, and incubated in the dark at room temperature for 10 min. Total end-point luminescence was then determined on a Synergy H1MF plate reader (Biotek).

phzF1-lacZ = experiment: microbe, parasite or virus in culture; format: cell-based
[2] = tested on: P. aeruginosa phzF1-lacZ strain; experiment: Dose-dependent growth inhibition of phzF1-lacZ strain by antibiotics; format: cell-based
[3] = tested on: virulence factor expression (seven lacZ reporter strains); format: cell-based, Pseudomonas aeruginosa
From the text: Seven reporter strains from the sequence-verified transposon mutant library generated by Manoil and colleagues were identified, in which transposons carrying a promoterless lacZ reporter were inserted into the genome of P. aeruginosa. The strains selected carried an in-frame lacZ reporter in aprD (alkaline protease), pqsA (PQS biosynthesis), hcnB (HCN biosynthesis), algK (alginate biosynthesis), phzB2 and phzF1 (phenazine biosynthesis from two different gene clusters), and plcH (phospholipase C). […] By carrying out an ex vivo LacZ assay, all LacZ assay inhibitors in a library of small molecules were identified. Growth-inhibition assays using the small molecule library were performed by monitoring optical density at 600 nm (OD600 nm).
After a defined growth period, the expression of each of the seven reporter strains was determined using high-throughput LacZ assays. The LacZ activity was normalized relative to the negative control. The log10 of the fold-change for each of the seven strains were combined and colorized to produce an anti-virulence heat-map.
as §6

HHQ and PQS production = experiment: HPLC-MS quantification of HHQ and PQS in wt P. aeruginosa; format: cell-based, Pseudomonas aeruginosa
Protocol: FIG. 3D is a graph showing the relative quantification of HHQ and PQS produced by wt P. aeruginosa as a function of guanfacine concentration, normalized to an untreated control.
[…]. This HPLC analysis of cell-free supernatants of P. aeruginosa in the absence (solid lines) or presence (dashed lines) of 40 μM guanfacine. Peaks corresponding to HHQ and PQS are labeled, peaks of other quinolones are indicated with an asterisk.
The effects of guanfacine were probed further by measuring the levels of pyocyanin, a downstream product of phenazine. Pyocyanin is the blue secondary metabolite responsible for both the toxicity and characteristic color of P. aeruginosa. […]. […] To verify that guanfacine acts upstream of both products, levels of quinolines were directly measured. […]
(§1) HPLC-MS analysis. Direct detection and quantification of HHQ and PQS was carried out by growing wt P. aeruginosa under identical conditions as described above (for growth in 50 mL Erlenmeyer flasks). […] The organic layer was separated, dried completely in a speedvac concentrator, resuspended in 0.5 mL of MeOH, and analysed on an Agilent HPLC-MS consisting of a liquid autosampler, a 1260 Infinity Series HPLC system coupled to a photodiode array detector and a 6120 Series ESI mass spectrometer. […]

phzB2-lacZ = phzB2-lacZ reporter dose-response; format: cell-based; conditions: Pseudomonas aeruginosa, read-out: IC50, concentration at which half-maximal down-regulation was observed (phzB2 reporter)
Protocol: FIG. 3B is a graph showing the dose-response of phzB2-lacZ as a function of guanfacine concentration.
Assays were carried out in 50 mL Erlenmeyer flasks containing 10 mL of LB-Mops. For LacZ assays, an appropriate reporter strain from an LB agar plate was used to inoculate 5 mL of LB-Mops in a sterile 14 mL bacterial culture tube. After 4 h, OD600 nm was determined, and the culture subsequently diluted to an initial OD600 nm of 0.05 in a 50 mL Erlenmeyer flask. The compound of interest was added from stock concentrations generated in DMSO. A control containing only DMSO was also included. Assays were typically carried out in three biological replicates. A positive control culture, phzB2-lacZ in the absence of any compounds, was grown in parallel as well. The cultures were grown at 30° C./200 rpm. After 12 h, 65 μL was removed from each culture flask and dispensed into a sterile, white 96-well plate (Corning). Each well was supplemented with 35 μL of 3:1 diluted β-Glo reagent (Promega). The plate was incubated in the dark at room temperature for 10 minutes. End-point luminescence was determined on a Biotek H1MF plate reader. To obtain IC50 values, the averaged luminescence output (used to determine LacZ activity) was plotted against the log of the concentration of the inhibitor. The data were fit to a dose-response curve using GraphPad Prism software.

[4] = tested on: seven virulence genes (aprD, pqsA, hcnB, algK, phzB2, phzF1, plcH lacZ reporters); experiment: LacZ assay in flask cultures, seven virulence reporter strains; format: cell-based, Pseudomonas aeruginosa; conditions: relative to untreated control
From the text: FIG. 3A is a graph showing the transcriptional down-regulation of seven virulence genes by guanfacine relative to an untreated control.
The effect of guanfacine on the expression of virulence factors was verified in flask cultures. […].
In one example, reporter genes for the various virulence factors encoded in the P. aeruginosa genome were selected. Seven reporter strains from the sequence-verified transposon mutant library generated by Manoil and colleagues were identified, in which transposons carrying a promoterless lacZ reporter were inserted into the genome of P. aeruginosa. The strains selected carried an in-frame lacZ reporter in aprD (alkaline protease), pqsA (PQS biosynthesis), hcnB (HCN biosynthesis), algK (alginate biosynthesis), phzB2 and phzF1 (phenazine biosynthesis from two different gene clusters), and plcH (phospholipase C). […]
Assays were carried out in 50 mL Erlenmeyer flasks containing 10 mL of LB-Mops. […] After 4 h, OD600 nm was determined, and the culture subsequently diluted to an initial OD600 nm of 0.05 in a 50 mL Erlenmeyer flask. […] End-point luminescence was determined on a Biotek H1MF plate reader. To obtain IC50 values, the averaged luminescence output (used to determine LacZ activity) was plotted against the log of the concentration of the inhibitor. […]

pyocyanin biosynthesis = experiment: Pyocyanin quantification; format: cell-based, Pseudomonas aeruginosa; conditions: treated vs untreated cultures, concentration-dependent
From the text: FIG. 3C is a graph showing the dose-dependent reduction of pyocynanin biosynthesis as a function of guanfacine concentration.
The effects of guanfacine were probed further by measuring the levels of pyocyanin, a downstream product of phenazine. Pyocyanin is the blue secondary metabolite responsible for both the toxicity and characteristic color of P. aeruginosa. […]. Without being bound to a particular theory, the likely cause of the incomplete suppression of pyocyanin synthesis is the existence of two independently-expressed copies of the phenazine biosynthetic operon. Nonetheless, the direct measurement of pyocyanin corroborates results observed with the reporter strains. The production of both phenazines and pyocyanin is known to be regulated by the las and pqs QS circuits. Specifically, in response to 3O-C12-HSL, LasR induces expression of the pqs operon and the LysR-type regulator, PqsR. The PQS/PqsR complex then activates phenazine and pyocyanin synthesis. To verify that guanfacine acts upstream of both products, levels of quinolines were directly measured. […].
(§2) Pyocyanin quantification. Pyocyanin quantification was carried by a method adapted from Essar et al.[17] […] 120 μL of this extract was transferred to a clear 96-well plate and the OD520 nm was recorded using a plate reader. […]

P. aeruginosa [5] = experiment: Growth curve of P. aeruginosa in absence and presence of guanfacine; format: cell-based, Pseudomonas aeruginosa; conditions: 10, 20, 40 and 80 μM guanfacine
Protocol: FIG. 2 is a graph showing the growth curve of P. aeruginosa in the absence (DMSO) and presence of guanfacine in various concentrations (10 μM, 20 μM, 40 μM, and 80 μM).

[6] = tested on: pmrB::Tn mutant (QseC homolog); experiment: HHQ and pyocyanin production in pmrB::Tn mutant; format: cell-based, Pseudomonas aeruginosa; conditions: pmrB::Tn cultures supplemented with guanfacine
Protocol: FIG. 4 is a graph of the quantification of the levels of HHQ (black bars) and pyocyanin (white bars) in guanfacine-treated and untreated cultures.
To explore this idea, a mutant carrying a transposon insertion in pmrB (pmrB::Tn) was tested. Both wt and mutant strains were grown in the presence of guanfacine or DMSO (control), and the production of HHQ was quantified directly using HPLC-MS, while pyocyanin synthesis was assessed as previously reported. […] In the absence of the sensor His kinase, guanfacine was unable to exert its down-regulatory effect, especially with pyocyanin where significant production remained.
as §1, §2

pelG-lacZ = pelG-lacZ reporter dose-response; format: cell-based, Pseudomonas aeruginosa
From the text: (§3) FIG. 3F is a graph of the dose-response of the expression of pelG and pelB, involved in biofilm production, as a function of guanfacine concentration, using the appropriate LacZ reporter strain.
(§4) Another important virulence determinant in P. aeruginosa is biofilm formation. A cluster of genes, termed pel regulated by the las QS system, have been established as responsible for producing the biofilm matrix exopolysaccharide. Two reporter strains carrying translational lacZ fusions (pelB-lacZ and pelG-lacZ) were subjected to guanfacine dose-response analysis. […].
(§5) Assays were carried out in 50 mL Erlenmeyer flasks containing 10 mL of LB-Mops. For LacZ assays, an appropriate reporter strain from an LB agar plate was used to inoculate 5 mL of LB-Mops in a sterile 14 mL bacterial culture tube. After 4 h, OD600 nm was determined, and the culture subsequently diluted to an initial OD600 nm of 0.05 in a 50 mL Erlenmeyer flask. The compound of interest was added from stock concentrations generated in DMSO. A control containing only DMSO was also included. Assays were typically carried out in three biological replicates. […] End-point luminescence was determined on a Biotek H1MF plate reader. To obtain IC50 values, the averaged luminescence output (used to determine LacZ activity) was plotted against the log of the concentration of the inhibitor. […]

pelB-lacZ = pelB-lacZ reporter dose-response; format: cell-based, Pseudomonas aeruginosa
From the text: as §3, §4, §5

[7] = relative to the untreated strain, OD600 nm after 12 h
[8] = Pseudomonas aeruginosa; read-out: EC50, concentration at which induction of phzF1-lacZ was half-maximal
[9] = Pseudomonas aeruginosa, PHZF1LACZSTRAIN; read-out: growth-inhibitory IC50
[10] = LacZ activity normalized to negative control, seven reporter strains

O=C(N[C@H](CO)[C@H](O)c1ccc([N+](=O)[O-])cc1)C(Cl)Cl [Chloramphenicol]
% Growth Inhibition (P. aeruginosa [1]; [7]): 64%

[H]/N=C(\N/C(=N/[H])NCCCCCCNC(=N)NC(=N)Nc1ccc(Cl)cc1)Nc1ccc(Cl)cc1 [Chlorhexidine]
% Growth Inhibition (P. aeruginosa [1]; [7]): 96%

C[C@]12CC[C@@H]3c4ccc(O)cc4CC[C@H]3[C@@H]1CC[C@@H]2O [Estradiol]
% Growth Inhibition (P. aeruginosa [1]; [7]): 73%

CCCCCCCCc1ccc(CCC(N)(CO)CO)cc1 [Fingolimod]
% Growth Inhibition (P. aeruginosa [1]; [7]): 76%

CCCCCOc1ccc(-c2cc(-c3ccc(C(=O)N[C@H]4C[C@@H](O)[C@@H](O)NC(=O)[C@@H]5[C@@H](O)[C@@H](C)CN5C(=O)[C@H]([C@H](O)CC(N)=O)NC(=O)[C@H]([C@H](O)[C@@H](O)c5ccc(O)c(OS(=O)(=O)O)c5)NC(=O)[C@@H]5C[C@@H](O)CN5C(=O)[C@H]([C@@H](C)O)NC4=O)cc3)no2)cc1 [Micafungin] (X1-[Orn(4R-OH,5R-OH)]T[Hyp][hTyr(3S-OH,4S-OH,3'-OSO3H)][Gln(3R-OH)][Pro(3S-OH,4S-Me)]; lactam 1-C)
% Growth Inhibition (P. aeruginosa [1]; [7]): 54%

CCN1CCN(C(=O)N[C@@H](C(=O)N[C@@H]2C(=O)N3[C@@H]2SC(C)(C)[C@@H]3C(=O)O)c2ccccc2)C(=O)C1=O [Piperacillin]
EC50 (phzF1-lacZ; [8]): 8.4 µM | IC50 [2, 9]: 6.4 µM | effect on virulence factor expression in screen [3, 10]: further enhance the expression of virulence factors

CC/C(=C(\c1ccccc1)c1ccc(OCCN(C)C)cc1)c1ccccc1 [Tamoxifen]
% Growth Inhibition (P. aeruginosa [1]): 57%

COc1cc(Cc2cnc(N)nc2N)cc(OC)c1OC [Trimethoprim]
% Growth Inhibition (P. aeruginosa [1]): 73%

CN1CCc2cccc3c2[C@H]1Cc1ccc(O)c(O)c1-3 [apomorphine]
effect on virulence factor expression in screen [3]: A similar effect

CO/N=C(\C(=O)N[C@@H]1C(=O)N2C(C(=O)O)=C(C[N+]3(C)CCCC3)CS[C@H]12)c1csc(N)n1 [cefepime]
IC50 [2, 9]: 4.6 µM

C/C=C/C1=C(C(=O)O)N2C(=O)[C@@H](NC(=O)[C@H](N)c3ccc(O)cc3)[C@H]2SC1 [cefprozil]
EC50 (phzF1-lacZ; Pseudomonas aeruginosa, read-out: EC50, concentration at which induction of phzF1-lacZ was half-maximal): 58 µM | IC50 ([2]; Pseudomonas aeruginosa, PHZF1LACZSTRAIN, read-out: growth-inhibitory IC50): 362 µM

CC(C)(O/N=C(\C(=O)N[C@@H]1C(=O)N2C(C(=O)O)=C(C[n+]3ccccc3)CS[C@H]12)c1csc(N)n1)C(=O)O [ceftazidime]
EC50 (phzF1-lacZ; [8]): 21 µM | IC50 [2, 9]: 53 µM

N=C(N)NC(=O)Cc1c(Cl)cccc1Cl [guanfacine]
levels of HHQ, PQS and several other quinolines (HHQ and PQS production): decreased levels | fold less PQS relative to DMSO-treated control (HHQ and PQS production; 40 μM guanfacine): 4.5 fold | IC50 (phzB2-lacZ): 19 µM | reduction of reporter expression across seven reporter strains [4]: 2-9 fold | reduction in the levels of pyocyanin (pyocyanin biosynthesis): 1.5 fold | growth inhibition (growth curve versus DMSO control) (P. aeruginosa [5]): not growth-inhibitory | effect on virulence factor expression in screen [3, 10]: A similar effect | effect on HHQ and pyocyanin production in pmrB::Tn cultures [6]: no further effect | suppression of pelG expression (pelG-lacZ; 80 μM guanfacine): Nearly complete suppression | IC50 (pelG-lacZ; Pseudomonas aeruginosa, pelG-lacZ): 3.1 µM | suppression of pelB expression (pelB-lacZ; 80 μM guanfacine): Nearly complete suppression | IC50 (pelB-lacZ; Pseudomonas aeruginosa, pelB-lacZ): 5.8 µM

CC(C)Cc1ccc(C(C)C(=O)O)cc1 (stereo not drawn) [ibuprofen]
effect on virulence factor expression in screen [3, 10]: down-regulated virulence factor expression

CC(C(=O)O)c1cccc(C(=O)c2ccccc2)c1 (stereo not drawn) [ketoprofen]
effect on virulence factor expression in screen [3]: down-regulated virulence factor expression

COc1ccc2cc([C@H](C)C(=O)O)ccc2c1 [naproxen]
effect on virulence factor expression in screen [3]: down-regulated virulence factor expression

Cc1ccc(C(=O)c2cc(O)c(O)c([N+](=O)[O-])c2)cc1 [tolcapone]
effect on virulence factor expression in screen [3, 10]: A similar effect

Colistin
% Growth Inhibition (P. aeruginosa [1]; [7]): 96%

Reference: US11813235B2, “Guanfacine as an anti-virulence agent” (priority 2019, dated 2023)
